In patent US20260250741A1, “DEVELOPMENT OF CELL MEDIUM AND FEED ON MAMMALIAN CELLS” (Evonik Operations GmbH, priority 2023, published 2026):

Experiments:
[1] = system: Agarabi CHO (ATCC® CRL-3440™); settings: 120 μM added every 48 hrs, 7 day batch culture, CD FortiCHO + 8 mM L-glutamine
Procedure: For this experiment, a transgenic CHO cell line, Agarabi CHO (ATCC® CRL-3440™), was grown in CD FortiCHO medium supplemented with 8 mM L-glutamine at 37° C., 8% CO2, at a shaking speed of 130 RPM. Batch culture of 6 flasks was maintained for 7 days where 3 flasks represent technical replicates for the control set and 3 flasks represent technical replicates for the treatment set. The flasks were seeded with 3E5 viable cells/mL on day 0 and to induce oxidative stress, hydrogen peroxide was added every 48 hrs to the treatment set with a final concentration of 120 μM. Cell count, cell viability, and heterologous protein production were measured every 2 days and cell pellets were collected for both control and treatment set on day 7.

[2] = system: Agarabi CHO (ATCC® CRL-3440™); settings: FDR corrected p-value <0.05 and methylation change greater than 25% between groups; cell pellets day 7
Procedure: Genomic DNA was purified from the collected cell pellets using DNeasy Blood & Tissue Kit (Qiagen) and was quantified using PicroGreen or NanoDrop™ 2000. The genomic DNA (500 ng) from the control and treatment set were used to prepare libraries for Whole Genome Bisulfite Sequencing (WGBS). The sequencing of the libraries was performed by a third party on a NovaSeq platform which generated 125 GB of data per sample.
Raw sequencing data were conducted quality control (fastqc) 1, sequencing adaptors trimming (TrimGalore) 2, and alignment with Bismark3. CMV promoter combined with CHOK1-GS (Cricetulus griseus) genome was used as a reference genome.
Bismark was also used for removing duplicated reads and extracting methylation counts from alignment output.
Since regulated methylation targets are most commonly clustered into short regions, DMRfinder4 was used to perform a modified single-linkage clustering of methylation sites.
Differential methylation analysis was performed using MethylKit5 between the control and treatment groups. Logistic regression was used to determine the differential methylation across all regions, and the sliding linear model (SLIM) 6 method to do FDR correction.

[3] = system: Agarabi CHO (ATCCR CRL-3440™); test: Adaptation of CHO cells with media supplement, batch culture (cell count, viability, protein production); format: cell-based, Cricetulus griseus; settings: 1 mg/L, adapted for 2 weeks, 7 day batch culture, CD FortiCHO + 8 mM L-glutamine
Procedure: For this experiment, a transgenic CHO cell line, Agarabi CHO (ATCCR CRL-3440™), was adapted for 2 weeks in CD FortiCHO medium supplemented with 8 mM L-glutamine & 1 mg/L human insulin-like growth factor 1 (IGF-1) at 37° C., 8% CO2, at a shaking speed of 130 RPM. Batch culture of 6 flasks was maintained for 7 days where 3 flasks represent technical replicates for the control set (without IGF-1 adaptation) and 3 flasks represent technical replicates for the IGF-1 adapted set. The flasks were seeded with 3E5 viable cells/mL on day 0 and 1 mg/L Insulin Growth Factor was added to the adapted set. Cell count, cell viability, and protein production were measured every 2 days and cell pellets were collected for both control and treatment set on day 7.

[4] = system: Agarabi CHO (ATCCR CRL-3440™); test: WGBS differential methylation analysis, IGF-1 adapted vs control; format: cell-based, Cricetulus griseus; settings: FDR corrected p-value <0.05 and methylation change greater than 25% between groups; cell pellets day 7
Procedure: With a maximum distance between CpG sites of 100 bp, 2048904 genomic regions were found for IGF-1 adapted samples.
Regions with FDR corrected p-value <0.05 and methylation change greater than 25% between groups were determined as differentially methylated regions (DMRs), which was 289 for IGF-1 adapted samples listed in Table 2.

OO [hydrogen peroxide]
cell viability compared to control set [1]: reduced | growth rate compared to control set [1]: reduced | heterologous protein productivity compared to control set [1]: slight increase | number of differentially methylated regions (DMRs) [2]: 122

IGF-1: human insulin-like growth factor 1, media supplement for CHO cells
growth rate compared to control set [3]: no significant effect | heterologous protein productivity compared to control set [3]: doubled | viability compared to control set [3]: no significant effect | number of differentially methylated regions (DMRs) [4]: 289
